From PubChem BioAssay AID2060896 (Molecular Pharmacology Branch, DTP, NCI, 2025)

Tested on: 941728-121-R-J1-PDC complex spheroid viability
Test: Anticancer human tumor 941728-121-R-J1-PDC patient-derived lung adenocarcinoma cell line growth inhibition [RAS]
Details: for IC50: curve of first compound; for viability, T/C: stronger effect = lower value
In short: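 Agents were tested in combination matrices in half-log decrements from a top concentration at or near clinical Cmax (10 microM if undetermined). Targets were multi-cell spheroids of tumour lines plus HUVEC and MSC stromal cells.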

[1] = second compound 0.000949 µM, first compound 0.0316 µM
[2] = second compound 0.000949 µM, first compound 0.1 µM
[3] = second compound 0.000949 µM, first compound 0.316 µM
[4] = second compound 0.000949 µM, first compound 1 µM
[5] = second compound 0.000949 µM, first compound 3.16 µM
[6] = second compound 0.000949 µM, first compound 10 µM
[7] = second compound 0.003 µM, first compound 0.0316 µM
[8] = second compound 0.003 µM, first compound 0.1 µM
[9] = second compound 0.003 µM, first compound 0.316 µM
[10] = second compound 0.003 µM, first compound 1 µM
[11] = second compound 0.003 µM, first compound 3.16 µM
[12] = second compound 0.003 µM, first compound 10 µM
[13] = second compound 0.00949 µM, first compound 0.0316 µM
[14] = second compound 0.00949 µM, first compound 0.1 µM
[15] = second compound 0.00949 µM, first compound 0.316 µM
[16] = second compound 0.00949 µM, first compound 1 µM
[17] = second compound 0.00949 µM, first compound 3.16 µM
[18] = second compound 0.00949 µM, first compound 10 µM
[19] = second compound 0.03 µM, first compound 0.0316 µM
[20] = second compound 0.03 µM, first compound 0.1 µM
[21] = second compound 0.03 µM, first compound 0.316 µM
[22] = second compound 0.03 µM, first compound 1 µM
[23] = second compound 0.03 µM, first compound 3.16 µM
[24] = second compound 0.03 µM, first compound 10 µM
[25] = second compound 0.0949 µM, first compound 0.0316 µM
[26] = second compound 0.0949 µM, first compound 0.1 µM
[27] = second compound 0.0949 µM, first compound 0.316 µM
[28] = second compound 0.0949 µM, first compound 1 µM
[29] = second compound 0.0949 µM, first compound 3.16 µM
[30] = second compound 0.0949 µM, first compound 10 µM
[31] = second compound 0.3 µM, first compound 0.0316 µM
[32] = second compound 0.3 µM, first compound 0.1 µM
[33] = second compound 0.3 µM, first compound 0.316 µM
[34] = second compound 0.3 µM, first compound 1 µM
[35] = second compound 0.3 µM, first compound 3.16 µM
[36] = second compound 0.3 µM, first compound 10 µM
[37] = second compound 0.000949 µM, first compound 0.00316 µM
[38] = second compound 0.000949 µM, first compound 0.01 µM
[39] = second compound 0.003 µM, first compound 0.00316 µM
[40] = second compound 0.003 µM, first compound 0.01 µM
[41] = second compound 0.00949 µM, first compound 0.00316 µM
[42] = second compound 0.00949 µM, first compound 0.01 µM
[43] = second compound 0.03 µM, first compound 0.00316 µM
[44] = second compound 0.03 µM, first compound 0.01 µM
[45] = second compound 0.0949 µM, first compound 0.00316 µM
[46] = second compound 0.0949 µM, first compound 0.01 µM
[47] = second compound 0.3 µM, first compound 0.00316 µM
[48] = second compound 0.3 µM, first compound 0.01 µM
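Further: spheroids exposed to compounds for 7 days before readout.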
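Wherever viability, T/C is given: 100% = DMSO vehicle control viability.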

`CC(C)NCC(C(=O)N1CCN(c2ncnc3c2C(C)CC3O)CC1)c1ccc(Cl)cc1` (stereo not drawn) + CCn1c(-c2cccnc2C(C)OC)c2c3cc(ccc31)N1CCOC(CC(NC(=O)C(C(C)C)N(C)C(=O)C3(F)CCN(C(=O)C#CC(C)(C)N(C)C)CC3)C(=O)N3CCCC(N3)C(=O)OCC(C)(C)C2)C1 showed an IC50 (second compound 0.000949 µM) of less than 31.6 nM, an IC50 (second compound 0.003 µM) of less than 31.6 nM and an IC50 (second compound 0.00949 µM) of less than 31.6 nM. For the same compound, the IC50 (second compound 0.03 µM) was less than 31.6 nM, the IC50 (second compound 0.0949 µM) was less than 31.6 nM and the IC50 (second compound 0.3 µM) was less than 31.6 nM. It also gave a viability, T/C [1] of 25.4%, a viability, T/C [2] of 23% and a viability, T/C [3] of 17.7%. For the same compound, the viability, T/C [4] was 18.8%, the viability, T/C [5] was 14.5% and the viability, T/C [6] was 7.61%. It also gave a viability, T/C [7] of 23.5%, a viability, T/C [8] of 21.9% and a viability, T/C [9] of 18.5%. For the same compound, the viability, T/C [10] was 18.1%, the viability, T/C [11] was 14.7% and the viability, T/C [12] was 9.24%. It also gave a viability, T/C [13] of 23.1%, a viability, T/C [14] of 15.8% and a viability, T/C [15] of 22.4%. The viability, T/C [16] was 17.5%, the viability, T/C [17] was 13.2% and the viability, T/C [18] was 9.76%. For the same compound, the viability, T/C [19] was 22.8%, the viability, T/C [20] was 22.1% and the viability, T/C [21] was 19.3%. For the same compound, the viability, T/C [22] was 17.7%, the viability, T/C [23] was 12.9% and the viability, T/C [24] was 10.9%. For the same compound, the viability, T/C [25] was 21.1%, the viability, T/C [26] was 21.2% and the viability, T/C [27] was 20.7%. For the same compound, the viability, T/C [28] was 17.8%, the viability, T/C [29] was 11.9% and the viability, T/C [30] was 10.9%. The viability, T/C [31] was 24.7%, the viability, T/C [32] was 22.9% and the viability, T/C [33] was 18.9%. It also gave a viability, T/C [34] of 17.1%, a viability, T/C [35] of 13% and a viability, T/C [36] of 11.2%.

`CC(C)n1nc(-c2ccc3oc(N)nc3c2)c2c(N)ncnc21` + CCn1c(-c2cccnc2C(C)OC)c2c3cc(ccc31)N1CCOC(CC(NC(=O)C(C(C)C)N(C)C(=O)C3(F)CCN(C(=O)C#CC(C)(C)N(C)C)CC3)C(=O)N3CCCC(N3)C(=O)OCC(C)(C)C2)C1 gave an IC50 (second compound 0.000949 µM) of less than 0.316 nM, an IC50 (second compound 0.003 µM) of less than 0.316 nM and an IC50 (second compound 0.00949 µM) of less than 0.316 nM. For the same compound, the IC50 (second compound 0.03 µM) was less than 0.316 nM, the IC50 (second compound 0.0949 µM) was less than 0.316 nM and the IC50 (second compound 0.3 µM) was less than 0.316 nM. The viability, T/C (second compound 0.000949 µM, first compound 0.000316 µM) was 21.4%, the viability, T/C (second compound 0.000949 µM, first compound 0.001 µM) was 19.7% and the viability, T/C [37] was 12.9%. The viability, T/C [38] was 15.4%, the viability, T/C [1] was 11.6% and the viability, T/C [2] was 6.3%. It also gave a viability, T/C (second compound 0.003 µM, first compound 0.000316 µM) of 23.6%, a viability, T/C (second compound 0.003 µM, first compound 0.001 µM) of 19.4% and a viability, T/C [39] of 14.5%. It also gave a viability, T/C [40] of 15.6%, a viability, T/C [7] of 9.94% and a viability, T/C [8] of 7.46%. It also gave a viability, T/C (second compound 0.00949 µM, first compound 0.000316 µM) of 21%, a viability, T/C (second compound 0.00949 µM, first compound 0.001 µM) of 17.3% and a viability, T/C [41] of 19.8%. For the same compound, the viability, T/C [42] was 15.3%, the viability, T/C [13] was 9.22% and the viability, T/C [14] was 6.25%. The viability, T/C (second compound 0.03 µM, first compound 0.000316 µM) was 20.8%, the viability, T/C (second compound 0.03 µM, first compound 0.001 µM) was 19.7% and the viability, T/C [43] was 16.8%. It also gave a viability, T/C [44] of 14.8%, a viability, T/C [19] of 8.83% and a viability, T/C [20] of 8.55%. It also gave a viability, T/C (second compound 0.0949 µM, first compound 0.000316 µM) of 18.8%, a viability, T/C (second compound 0.0949 µM, first compound 0.001 µM) of 20.8% and a viability, T/C [45] of 17.4%. The viability, T/C [46] was 15.2%, the viability, T/C [25] was 9.76% and the viability, T/C [26] was 10.1%. The viability, T/C (second compound 0.3 µM, first compound 0.000316 µM) was 21.7%, the viability, T/C (second compound 0.3 µM, first compound 0.001 µM) was 18.9% and the viability, T/C [47] was 18.9%. For the same compound, the viability, T/C [48] was 15.9%, the viability, T/C [31] was 10.5% and the viability, T/C [32] was 10.8%.

With `CC(Nc1ccc2c(c1)OCCn1cc(N3C(=O)OCC3C(F)F)nc1-2)C(N)=O` (stereo not drawn) + CCn1c(-c2cccnc2C(C)OC)c2c3cc(ccc31)N1CCOC(CC(NC(=O)C(C(C)C)N(C)C(=O)C3(F)CCN(C(=O)C#CC(C)(C)N(C)C)CC3)C(=O)N3CCCC(N3)C(=O)OCC(C)(C)C2)C1 the IC50 (second compound 0.000949 µM) was less than 31.6 nM, the IC50 (second compound 0.003 µM) was less than 31.6 nM and the IC50 (second compound 0.00949 µM) was less than 31.6 nM. For the same compound, the IC50 (second compound 0.03 µM) was less than 31.6 nM, the IC50 (second compound 0.0949 µM) was less than 31.6 nM and the IC50 (second compound 0.3 µM) was less than 31.6 nM. For the same compound, the viability, T/C [1] was 18.5%, the viability, T/C [2] was 20.6% and the viability, T/C [3] was 12.5%. The viability, T/C [4] was 15.8%, the viability, T/C [5] was 13.3% and the viability, T/C [6] was 9.24%. The viability, T/C [7] was 20.5%, the viability, T/C [8] was 17.2% and the viability, T/C [9] was 14.4%. For the same compound, the viability, T/C [10] was 14.3%, the viability, T/C [11] was 13.8% and the viability, T/C [12] was 9.35%. The viability, T/C [13] was 18.9%, the viability, T/C [14] was 15.3% and the viability, T/C [15] was 15.1%. For the same compound, the viability, T/C [16] was 14.7%, the viability, T/C [17] was 11.5% and the viability, T/C [18] was 11.7%. The viability, T/C [19] was 19.8%, the viability, T/C [20] was 18% and the viability, T/C [21] was 14.6%. It also gave a viability, T/C [22] of 15.7%, a viability, T/C [23] of 9.34% and a viability, T/C [24] of 12.8%. It also gave a viability, T/C [25] of 18.8%, a viability, T/C [26] of 18.4% and a viability, T/C [27] of 15.8%. It also gave a viability, T/C [28] of 11.8%, a viability, T/C [29] of 12.1% and a viability, T/C [30] of 13.7%. For the same compound, the viability, T/C [31] was 19.9%, the viability, T/C [32] was 18.8% and the viability, T/C [33] was 14.6%. For the same compound, the viability, T/C [34] was 14.7%, the viability, T/C [35] was 13.5% and the viability, T/C [36] was 12.3%.

`O=C(c1ccc(F)c(F)c1Nc1ccc(I)cc1F)N1CC(O)([C@@H]2CCCCN2)C1` + CCn1c(-c2cccnc2C(C)OC)c2c3cc(ccc31)N1CCOC(CC(NC(=O)C(C(C)C)N(C)C(=O)C3(F)CCN(C(=O)C#CC(C)(C)N(C)C)CC3)C(=O)N3CCCC(N3)C(=O)OCC(C)(C)C2)C1 was tested, and the IC50 (second compound 0.000949 µM) was less than 3.16 nM, the IC50 (second compound 0.003 µM) was 21.9 nM and the IC50 (second compound 0.00949 µM) was less than 3.16 nM. It also gave an IC50 (second compound 0.03 µM) of less than 3.16 nM, an IC50 (second compound 0.0949 µM) of less than 3.16 nM and an IC50 (second compound 0.3 µM) of less than 3.16 nM. The viability, T/C [37] was 20.5%, the viability, T/C [38] was 18.8% and the viability, T/C [1] was 13.7%. The viability, T/C [2] was 17.1%, the viability, T/C [3] was 12.5% and the viability, T/C [4] was 7.9%. The viability, T/C [39] was 94.2%, the viability, T/C [40] was 64.1% and the viability, T/C [7] was 37.4%. The viability, T/C [8] was 38%, the viability, T/C [9] was 35.4% and the viability, T/C [10] was 18.4%. For the same compound, the viability, T/C [41] was 18.6%, the viability, T/C [42] was 15.4% and the viability, T/C [13] was 17%. For the same compound, the viability, T/C [14] was 14.6%, the viability, T/C [15] was 11.6% and the viability, T/C [16] was 9.5%. For the same compound, the viability, T/C [43] was 18.3%, the viability, T/C [44] was 17.9% and the viability, T/C [19] was 18.8%. It also gave a viability, T/C [20] of 12.8%, a viability, T/C [21] of 12.4% and a viability, T/C [22] of 12.2%. For the same compound, the viability, T/C [45] was 19.4%, the viability, T/C [46] was 17.1% and the viability, T/C [25] was 15.8%. For the same compound, the viability, T/C [26] was 13.6%, the viability, T/C [27] was 12.9% and the viability, T/C [28] was 15.1%. For the same compound, the viability, T/C [47] was 17.9%, the viability, T/C [48] was 20% and the viability, T/C [31] was 15.8%. For the same compound, the viability, T/C [32] was 15.7%, the viability, T/C [33] was 13.7% and the viability, T/C [34] was 14%.
